Our source for the MIC and pIC50 values is patent publication US7498343B2, “Mycobacterial inhibitors” (priority 2002, dated 2009).

Assay [1] deals with Mycobacterium tuberculosis (strain H37RV). As to the kind of experiment: In-vitro method for testing compounds against M. tuberculosis (resazurin growth inhibition, MIC). The format is cell-based. To be noted: MIC data representing IC90's, 7 days incubation, resazurin fluorescence.
The subject of another assay is M. Smegmatis ATCC607. Description: In-vitro method for testing compounds for anti-bacterial activity against strain M. smegmatis ATCC607 (Alamar Blue growth inhibition). Format: cell-based. To be noted: M. smegmatis ATCC607; pIC50 = -logIC50, IC50 in M, 50% inhibitory concentration for bacterial growth; 48 hours incubation. The procedure:
C.2. In-vitro Method for Testing Compounds for Anti-bacterial Activity Against Strain M. Smegmatis ATCC607. […] Subsequently, stock solutions (7.8×final test concentration) of compounds were added in 45 μl volumes to a series of duplicate wells in column 2 so as to allow evaluation of their effects on bacterial growth. Serial five-fold dilutions (45 μl in 180 μl) were made directly in the microtiter plates from column 2 to 11 using a customised robot system (Zymark Corp., Hopkinton, Mass.). Pipette tips were changed after every 3 dilutions to minimize pipetting errors with high hydrophobic compounds. Untreated control samples with (column 1) and without (column 12) inoculum were included in each microtiter plate. Approximately 250 CFU per well of bacteria inoculum, in a volume of 100 μl in 2.8×Mueller-Hinton broth medium, was added to the rows […]. The same volume of broth medium without inoculum was added to column 12 in row A to H. The cultures were incubated at 37° C. for 48 hours in a humidified 5% CO2 atmosphere (incubator with open air valve and continuous ventilation). At the end of incubation, two days after inoculation, the bacterial growth was quantitated fluorometrically. Therefore Alamar Blue (10×) was added to all wells in a volume of 20 μl and plates were incubated for another 2 hours at […] The fluorescence was read in a computer-controlled fluorometer (Cytofluor, Biosearch) at an excitation wavelength of 530 nm and an emission wavelength of 590 nm (gain 30). The % growth inhibition achieved by the compounds was calculated according to standard methods.

The structures appear in SMILES notation.

For the compound `COc1ccc2nc(OC)c(C(c3ccccc3)C(O)(CCN(C)C)c3ccccc3)cc2c1` (single isomer, unassigned) [Compound 34], the MIC in assay [1] was found to be 45.66 microgram/ml. The compound also registered a pIC50 in the assay with M. Smegmatis ATCC607 of 5.1.
Turning to `COc1ccc2nc(OC)c(C(c3ccccc3)C(O)(CCN(C)C)c3ccccc3)cc2c1` (single isomer, unassigned) [Compound 35], the MIC in assay [1] is on record as 1.82 microgram/ml. This compound came in with a pIC50 with M. Smegmatis ATCC607 of 6.8.
As to `COc1nc2ccc(Br)cc2cc1C(c1ccc(Cl)cc1)C(O)(CCN(C)C)c1ccccc1` (single isomer, unassigned) [Compound 36], the MIC in assay [1] is given as 5.40 microgram/ml. Also, the pIC50 in the assay with M. Smegmatis ATCC607 came to 6.4.
In the same order, the values of `COc1nc2ccc(Br)cc2cc1C(c1ccc(Cl)cc1)C(O)(CCN(C)C)c1ccccc1` (single isomer, unassigned) [Compound 37] are 0.34 microgram/ml and 7.9.
In the same order, the values of `COc1nc2ccccc2cc1C(c1ccccc1)C(O)(CCN(C)C)c1ccccc1` (single isomer, unassigned) [Compound 40] are 21.38 microgram/ml and 4.7.
In assay [1], `COc1nc2ccccc2cc1C(c1ccccc1)C(O)(CCN(C)C)c1ccccc1` (single isomer, unassigned) [Compound 41] registered an MIC of 8.51 microgram/ml. In addition, the pIC50 with M. Smegmatis ATCC607 was determined as 5.9.
As for `COc1nc2ccccc2cc1C(c1ccccc1)C(C)(O)CCN(C)C` (single isomer, unassigned) [Compound 42], in assay [1], the MIC is listed as 44.34 microgram/ml. In the assay on M. Smegmatis ATCC607, this compound had a pIC50 of 6.3.
For the compound `COc1nc2ccccc2cc1C(c1ccccc1)C(C)(O)CCN(C)C` (single isomer, unassigned) [Compound 43], in assay [1], the MIC was 44.34 microgram/ml. For the same compound, the pIC50 with M. Smegmatis ATCC607 was 4.4.
Consider `COc1nc2ccc(Br)cc2cc1C(c1ccccc1)C(O)(CN(C)C)c1ccccc1` (single isomer, unassigned) [Compound 61], for which, in assay [1], the MIC stood at 39.04 microgram/ml. Moreover, the pIC50 in the assay with M. Smegmatis ATCC607 is 4.5.
For `COc1nc2ccc(Br)cc2cc1C(c1ccccc1)C(O)(CN(C)C)c1ccccc1` (single isomer, unassigned) [Compound 62] the same measures were 7.79 microgram/ml and 5.9.
Compound `COc1nc2ccc(Br)cc2cc1C(c1ccccc1)C(O)(CCCN(C)C)c1ccccc1` (single isomer, unassigned) [Compound 63] came in with an MIC in assay [1] of 1.64 microgram/ml. Besides, the pIC50 in the assay with M. Smegmatis ATCC607 is listed as 6.7.
Take `COc1nc2ccc(Br)cc2cc1C(c1ccccc1)C(O)(CCCN(C)C)c1ccccc1` (single isomer, unassigned) [Compound 64]: the MIC in assay [1] was determined as 6.54 microgram/ml. This compound also came in with a pIC50 in the assay on M. Smegmatis ATCC607 of 5.8.
In assay [1], `COc1nc2ccc(Br)cc2cc1C(c1ccccc1)C(O)(CCCCN(C)C)c1ccccc1` (single isomer, unassigned) [Compound 65] came in with an MIC of 1.69 microgram/ml. In the assay on M. Smegmatis ATCC607, the pIC50 is 5.7.
Turning to `COc1nc2ccc(Br)cc2cc1C(c1ccccc1)C(O)(CCCCN(C)C)c1ccccc1` (single isomer, unassigned) [Compound 66], the MIC in assay [1] amounted to 1.69 microgram/ml. The pIC50 in the assay with M. Smegmatis ATCC607 is on record as 4.7.
`COc1nc2ccc(Br)cc2cc1C(c1ccccc1)C(O)(CCc1ccccc1)CCN(C)C` (single isomer, unassigned) [Compound 96] yielded an MIC in assay [1] of 21.24 microgram/ml. The same compound returned a pIC50 with M. Smegmatis ATCC607 of 6.2.
Take `COc1ccc2nc(OC)c(C(c3ccccc3)C(O)(CCN(C)C)c3cccc4ccccc34)cc2c1` (single isomer, unassigned) [Compound 97]: in assay [1], the MIC is on record as 20.17 microgram/ml. The same compound showed a pIC50 with M. Smegmatis ATCC607 of 5.9.
In turn, `COc1ccc2nc(OC)c(C(c3ccccc3)C(O)(CCN(C)C)c3cccc4ccccc34)cc2c1` (single isomer, unassigned) [Compound 98] yielded an MIC in assay [1] of 0.51 microgram/ml. This compound also yielded a pIC50 in the assay with M. Smegmatis ATCC607 of 7.9.
In the same order, the values of `COc1nc2ccc(Br)cc2cc1C(c1ccccc1)C(O)(CC[N+](C)(C)[O-])c1cccc2ccccc12` (single isomer, unassigned) [Compound 100] are 45.40 microgram/ml and 7.1.
In the case of `COc1nc2ccc(Br)cc2cc1C(c1ccccc1)C(O)(CC[N+](C)(C)C)c1cccc2ccccc12.[I-]` (single isomer, unassigned) [Compound 102], in assay [1], the MIC is 2.21 microgram/ml. This compound also yielded a pIC50 in the assay on M. Smegmatis ATCC607 of 6.5.
For `CN(C)CCC(O)(c1ccccc1)C(c1ccccc1)c1cc2cc(Br)ccc2n(C)c1=O` (single isomer, unassigned) [Compound 106] the same measures were 55.55 microgram/ml and 6.2.
On to `CN(C)CCC(O)(c1ccccc1)C(c1ccccc1)c1cc2cc(Br)ccc2n(C)c1=O` (single isomer, unassigned) [Compound 107], for which, in assay [1], the MIC was determined as 44.13 microgram/ml. In the assay with M. Smegmatis ATCC607, the pIC50 amounted to 5.8.
For the compound `COc1nc2ccc(Cl)cc2cc1C(c1ccccc1)C(O)(CCN(C)C)c1cccc2ccccc12` (single isomer, unassigned) [Compound 119], the MIC in assay [1] came out at 10.20 microgram/ml. The same compound registered a pIC50 in the assay with M. Smegmatis ATCC607 of 7.8.
As for `COc1nc2ccc(Cl)cc2cc1C(c1ccccc1)C(O)(CCN(C)C)c1cccc2ccccc12` (single isomer, unassigned) [Compound 120], the MIC in assay [1] turned out to be 40.60 microgram/ml. In the assay with M. Smegmatis ATCC607, this compound returned a pIC50 of 5.9.
In the same order, the values of `COc1nc2ccc(Br)cc2cc1C(c1ccccc1)C(O)(CC[N+](C)(C)C)c1cccc2ccccc12.[I-]` (single isomer, unassigned) [Compound 121] are 2.21 microgram/ml and 5.9.
`COc1nc2ccc(Br)cc2cc1C(c1ccccc1)C(O)(CCN(C)C)c1ccc2c3c(cccc13)CC2` (single isomer, unassigned) [Compound 122]: the MIC in assay [1] is 58.16 microgram/ml. The compound further returned a pIC50 with M. Smegmatis ATCC607 of 4.8.
With `COc1nc2ccc(Br)cc2cc1C(c1ccccc1)C(O)(CCCN(C)C)c1ccc2ccccc2c1` (single isomer, unassigned) [Compound 125], the MIC in assay [1] is listed as 18.01 microgram/ml. This compound also gave a pIC50 in the assay on M. Smegmatis ATCC607 of 4.4.
With `COc1nc2ccc(Br)cc2cc1C(c1ccccc1)C(O)(CCCN(C)C)c1ccc2ccccc2c1` (single isomer, unassigned) [Compound 126], in assay [1], the MIC is 56.96 microgram/ml. In addition, the pIC50 in the assay on M. Smegmatis ATCC607 is on record as 5.2.
As to `COc1nc2ccc(Br)cc2cc1C(c1ccccc1)C(O)(CCN(C)C)c1ccc2c(Br)cccc2c1` (single isomer, unassigned) [Compound 127], in assay [1], the MIC came to 25.26 microgram/ml. In the assay with M. Smegmatis ATCC607, this compound gave a pIC50 of 6.9.
As for `COc1nc2ccc(Br)cc2cc1C(c1ccccc1)C(O)(CCN(C)C)c1ccc2c(Br)cccc2c1` (single isomer, unassigned) [Compound 130], the MIC in assay [1] came to 50.32 microgram/ml. Further, the pIC50 with M. Smegmatis ATCC607 is given as 5.3.
On to `COc1nc2ccc(Br)cc2cc1C(c1ccccc1)C(O)(CCN(C)C)c1cccc2c1CCCC2` (single isomer, unassigned) [Compound 131], for which the MIC in assay [1] worked out at 44.45 microgram/ml. Further, in the assay on M. Smegmatis ATCC607, the pIC50 came to 6.9.
